Assay results from patent US20220259252A1, “4'-ETHYNYL-2'-DEOXYADENOSINE DERIVATIVES AND THEIR USE IN HIV THERAPY” (priority 2019, published 2022).

Assays:
[1] = system: HIV pseudotyped virus (NL4-3 provirus, luciferase reporter), M184V, in U373 cells expressing human CD4 and CXCR4 or CCR5; format: cell-based; settings: PSV assay, luciferase signal after 3 days
[2] = system: HIV pseudotyped virus (NL4-3 provirus, luciferase reporter), WT, in U373 cells expressing human CD4 and CXCR4 or CCR5; experiment: Pseudotyped virus (PSV) assay, WT; settings: Human immunodeficiency virus 1, NL43, U373 MG, 72 h, read-out: WT IC50
From the text: A pseudotyped virus assay (PSV) was used to assess the potency of the HIV inhibitor. Replication defective virus was produced by co-transfection of a plasmid containing an NL4-3 provirus [containing a mutation in the envelope open reading frame (ORF) and a luciferase reporter gene replacing the nef ORF] and a CMV-promoter expression plasmid containing an ORF for various HIV gp160 envelope clones. The harvested virus was stored at −80 C in small aliquots and the titer of the virus measured to produce a robust signal for antiviral assays.
The PSV assay was performed by using U373 cells stably transformed to express human CD4, the primary receptor for HIV entry and either human CXCR4 or human CCR5 which are the co-receptors required for HIV entry as target cells for infection. […] This dose-range was applied to U373 cells and the pre-made pseudotyped virus added. The amount of luciferase signal produced after 3 days of culture was used to reflect the level of pseudotyped virus infection. An IC50, or the concentration of inhibitor required to reduce PSV infection by 50% from the infection containing no inhibitor was calculated. […] IC50 values were determined from a 10 point dose response curve using 3-4-fold serial dilution for each compound, which spans a concentration range >1000 fold.
These values are plotted against the molar compound concentrations using the standard four parameter logistic equation:
y=((V max*x^n)/(K^n+x^n)+Y2
Y2=minimum y n=slope factor
Vmax=maximum y x=compound concentration [M]

SMILES	IC50 [1] [nM]	IC50 [2] [nM]
C#C[C@]1(CO)O[C@@H](n2cnc3c(N)nc(F)nc32)C[C@@H]1O [EFdA, 4′-ethynyl-2-fluoro-2′-deoxyadenosine, reference compound]	35.1	6.5
C#C[C@]1(CO)O[C@@H](n2cnc3c(N)nc(F)nc32)C[C@@H]1OC(=O)CCCCCCCCC(=O)O [Example 1, 10-(((2R,3S,5R)-5-(6-amino-2-fluoro-9H-purin-9-yl)-2-ethynyl-2-(hydroxymethyl)tetrahydrofuran-3-yl)oxy)-10-oxodecanoic Acid]	348	78.4
C#C[C@]1(CO)O[C@@H](n2cnc3c(N)nc(F)nc32)C[C@@H]1OC(=O)CCCCCCCCCCCCCCCCCCC(=O)O [Example 2, 20-(((2R,3S,5R)-5-(6-amino-2-fluoro-9H-purin-9-yl)-2-ethynyl-2-(hydroxymethyl)tetrahydrofuran-3-yl)oxy)-20-oxoicosanoic Acid]	35.7	6.4
C#C[C@]1(CO)O[C@@H](n2cnc3c(N)nc(F)nc32)C[C@@H]1OC(=O)CCCCCCCCCCCCC(=O)O [Example 3, 14-(((2R,3S,5R)-5-(6-amino-2-fluoro-9H-purin-9-yl)-2-ethynyl-2-(hydroxymethyl)tetrahydrofuran-3-yl)oxy)-14-oxotetradecanoic Acid]	24.4	5.4
C#C[C@]1(CO)O[C@@H](n2cnc3c(N)nc(F)nc32)C[C@@H]1OC(=O)COCCOC [Example 4, (2R,3S,5R)-5-(6-amino-2-fluoro-9H-purin-9-yl)-2-ethynyl-2-(hydroxymethyl)tetrahydrofuran-3-yl 2-(2-methoxyethoxy)acetate]	25.9	3.8
C#C[C@]1(CO)O[C@@H](n2cnc3c(N)nc(F)nc32)C[C@@H]1OC(=O)COCCOCCOC [Example 5, (2R,3S,5R)-5-(6-amino-2-fluoro-9H-purin-9-yl)-2-ethynyl-2-(hydroxymethyl)tetrahydrofuran-3-yl 2-(2-(2-methoxyethoxy)ethoxy)acetate]	22.1	5.5
C#C[C@]1(CO)O[C@@H](n2cnc3c(N)nc(F)nc32)C[C@@H]1OC(=O)CNC(=O)CCCCCC [Example 6, (2R,3S,5R)-5-(6-amino-2-fluoro-9H-purin-9-yl)-2-ethynyl-2-(hydroxymethyl)tetrahydrofuran-3-yl heptanoylglycinate]	11.4	2.2
C#C[C@]1(CO)O[C@@H](n2cnc3c(N)nc(F)nc32)C[C@@H]1OC(=O)CCCC(=O)OC(COC(=O)CCCCCC)COC(=O)CCCCCC [Example 7, (2R,3S,5R)-5-(6-amino-2-fluoro-9H-purin-9-yl)-2-ethynyl-2-(hydroxymethyl)tetrahydrofuran-3-yl (1,3-bis(heptanoyloxy)propan-2-yl) glutarate]	1190	232
C#C[C@]1(CO)O[C@@H](n2cnc3c(N)nc(F)nc32)C[C@@H]1OC(=O)CCCC(=O)OC(COC(=O)CCCCCCCCCCCCC)COC(=O)CCCCCCCCCCCCC [Example 8, (2R,3S,5R)-5-(6-amino-2-fluoro-9H-purin-9-yl)-2-ethynyl-2-(hydroxymethyl)tetrahydrofuran-3-yl (1,3-bis(tetradecanoyloxy)propan-2-yl) glutarate]	15000	1860
